# Source: patent publication US4868195A, “Novel enolamides, pharmaceutical compositions and methods of use thereof for activity as modulators of the arachidonic acid cascade” (Warner-Lambert Company, priority 1988, dated 1989)
# Key:
# [1] = target: T1, human leukocyte 5-lipoxygenase (Homo sapiens, UniProt P09917); test: 5-lipoxygenase inhibition in human leukocytes, 5-HETE formation (5LOA; methods 5LOA1 and 5LOA2); format: cell-based; settings: 5-HETE formation, human leukocytes; read-out: Concentration (M) for 50.0 % Inhibition, IC (5LOA)
# T1 construct: endogenous in cells; host or cells: intact leukocytes isolated from human blood
# T1 sequence (P09917 1-674): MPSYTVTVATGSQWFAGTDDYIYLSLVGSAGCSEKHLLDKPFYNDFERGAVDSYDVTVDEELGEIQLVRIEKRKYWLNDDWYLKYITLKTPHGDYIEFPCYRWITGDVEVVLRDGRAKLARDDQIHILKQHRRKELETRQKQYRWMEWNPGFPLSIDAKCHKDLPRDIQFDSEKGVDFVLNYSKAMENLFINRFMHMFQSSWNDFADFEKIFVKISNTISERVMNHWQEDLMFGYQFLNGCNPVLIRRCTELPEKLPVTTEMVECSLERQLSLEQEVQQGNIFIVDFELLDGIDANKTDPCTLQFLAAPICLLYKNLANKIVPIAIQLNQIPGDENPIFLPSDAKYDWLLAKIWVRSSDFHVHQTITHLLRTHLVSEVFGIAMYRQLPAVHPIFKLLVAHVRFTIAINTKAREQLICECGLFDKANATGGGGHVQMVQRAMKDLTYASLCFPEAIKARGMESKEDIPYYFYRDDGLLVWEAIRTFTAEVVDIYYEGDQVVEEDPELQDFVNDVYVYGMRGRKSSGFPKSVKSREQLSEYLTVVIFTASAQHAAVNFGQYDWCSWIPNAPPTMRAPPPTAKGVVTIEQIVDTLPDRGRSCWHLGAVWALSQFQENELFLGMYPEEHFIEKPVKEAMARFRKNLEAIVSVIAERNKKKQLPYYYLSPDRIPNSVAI
# Text: To Evaluate the Effect of Each Compounds as a 5-Lipoxygenase Inhibitor in Comparison to Standard Reference Agents in Human Leukocytes (5LOA1)
# The purpose of this assay is to evaluate the activity of each compound as an inhibitor of human leukocyte 5-lipoxygenase.
# Arachidonic acid and calcium ionophore A23187 are obtained from Sigma (St. Louis, MO). Silica gel plates, GF are obtained from Analtech (Newark, DE). Arachidonic acid, (1-^14 C) and 5-HETE (^3 H), 5 (S)-hydroxy-6-trans,8,11,14-cis eicosatetraenoic acid, are obtained from New England Nuclear (Boston, MA). Six percent Dextran-70 in 0.9% NaCl is obtained from Cutter Labs (Berkeley, CA).
# Preparation of Leukocytes
# Fresh blood from normal adult men who had not received any drugs for at least the previous five days is obtained by the Community Research Clinic (WL/PD) using venipuncture and collected into heparinized vacuotainer tubes. To every 100 ml of pooled blood is added 25 ml of dextran solution (6% dextran -70 in 0.9% sodium chloride containing 3% dextrose) and this is mixed gently in a plastic cylinder. The mixture is left to stand at room temperature for at least 90 minutes. The upper layer which is rich in leukocytes and platelets is then carefully decanted into 50 ml plastic tubes and centrifuged at about 100×g for eight minutes in an IEC centrifuge and rotor number 269 (about 600 rpm). The supernatant fluid is discarded and the pellet is resuspended in 10 ml of 0.87% ammonium chloride for exactly two minutes. This procedure is to lyse completely contaminating red blood cells. Leukocytes are then separated by centrifugation for ten minutes. The pellet is washed three times by suspension in 20 ml PBS (sodium chloride, 7.1 g; Na2 HPO4, 1.15 g; KH2 PO4, 0.2 g, and KCl, 0.2 g/L) and centrifuged as before. The final pellet is suspended in PBS containing 0.87 mM CaCl2. Viability of the cells is then checked using trypan blue exclusion method and is found to be over 90%.
# 5-Lipoxygenase Enzyme Assay
# Leukocyte cells in suspension (0.98 ml) are incubated with or without test compounds for five minutes at 37° C. in a shaking water bath. At this time a 17 μl mixture is prepared per 1 ml of cell suspension: 100 mM arachidonic acid, 1 μl, 0.05 μCi ^14 C-arachidonic acid in 5 μl; 1 mM calcium ionophore A23187, 10 μl (1). This mixture is added and the incubation continued for five minutes. The reaction is stopped by adding four volumes of absolute ethanol and the mixture is kept in ice for 30 minutes. The floculated precipitate is separated by centrifugation at about 37,000×g for 20 minutes (Beckman Instruments rotor number 40). The alcohol extract is taken to dryness under a stream of nitrogen and the residue is dissolved in 100-200 μl absolute ethanol. At the time any turbidity is removed by centrifugation. An aliquot (25-50 μl) is applied onto 20×20 cm silica gel TLC plate and developed using the following solvent system: diethyl ether, petroleum ether (2040° C.), acetic acid (50:50:1 v/v). Zones of 1 cm apart are scraped from the TLC plate and transferred to mini-vials. Methanol (0.5 ml) is added to dissolve the radioactivity adsorbed to the silica gel and scintillation fluid (H. P., Beckman), 5 ml is then added and vials are counted in a liquid scintillation counter. A sample of ^3 H-5-HETE is applied and used for the identification of the formed 5-HETE.
# Total radioactivity in the test as well as the control samples are normalized and the amount of 5-HETE present is calculated accordingly.
# IC50 values are defined as the concentrations of test agents which caused a 50% inhibition of the formation of 5-HETE as compared to control and are determined by inspection of the concentration-response curves.
# 5-Lipoxygenase Assay Using Isolated Human Leukocytes (5LOA2)
# The formation of 5-HETE in human leukocytes is considered a measure of 5-lipoxygenase activity. The protocol is described in the following. […]
# [2] = target: Human Leukocyte Lipoxygenase; test: Human Leukocyte Lipoxygenase Assay (LDA-H); format: biochemical; settings: acetone-pentane powder enzyme, 234 nm, 24° C., 5 min preincubation; read-out: Concentration (M) for 50.0 % Inhibition, IC (LDAH)
# Method in brief: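 Enzyme from acetone-pentane powder of human buffy-coat leukocytes, extracted in 0.1M Tris pH 7.4. Compound preincubated 5 min with enzyme, then reaction started with arachidonic or linoleic acid (100 μM or 1.0 μM) and followed at 234 nm (conjugated diene) at 24° C. IC50 is molar concentration halving control rate.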
structure (smiles),measurement,setting,value
"O=C(Nc1ccc(CCc2ccc(O)c(O)c2)cc1)C1=C(O)c2ccccc2S(=O)(=O)C1 [Example 21, N-[4-[2-(3,4-Dihydroxyphenyl)ethyl]phenyl]-4-hydroxy-2H-1-benzothiopyran-3-carboxamide, 1,1-dioxide]",IC50,[1],7e-07 M
same,IC50,[2],8.2e-06 M
